Source: patent US12419854B2, “Methods for treating or preventing gout or hyperuricemia” (Arthrosi Therapeutics, Inc., priority 2018, dated 2025)
Where two headings read alike, the source gives them in different places.

Tests used:
[1] = In vitro metabolism in human liver microsomes (HPLC-MS profiling); format: in vitro ADME; details: for % MS response, Parent: human liver microsomes 0.5 mg/mL, NADPH, 60 minutes, 37° C.
Protocol: After pre-warming the mixture at 37° C. for 5 minutes, the reaction was initiated by the addition of 1 mM of NADPH and incubated for 60 minutes at 37° C. in a shaking water bath. The reaction was terminated by the addition of 0.5 mL ice-cold acetonitrile. Time 0 incubation was also performed by adding acetonitrile before the addition of microsomes to the incubation mixture as a reference sample for each species. Following vortex and centrifugation at 15,000 g for 3 minutes at room temperature, resulting supernatant was concentrated under nitrogen flow at 33° C., until approximately 0.5 mL of sample remained. The extract was then transferred to a 1.5-mL centrifuge vial for centrifugation at 15,000 g for 3 minutes. Finally, aliquots of the supernatant were transferred to HPLC vials for HPLC-MS analyses.
MS Analysis: Mass spectral analyses were performed on an Agilent single quadruple mass spectrometer equipped with an Agilent 1100 HPLC system. The mass spectrometer was fitted with an electrospray ionization (ESI) source and operated in a negative scan mode between 400 and 500 amu:
Metabolic profiling of benzbromarone was conducted using a similar method as described above.

[2] = system: serum uric acid (sUA); test: Phase 1 single dose study, pharmacodynamics (serum uric acid); format: in vivo, human; details: for Percent change in serum uric acid, mean, time-matched (Day-1) baseline: 0 h
Protocol: (§1) The dose groups included Cohort 1 (15 mg or placebo, fasted, oral suspension), Cohort 2 (50 mg or placebo, fasted, suspension), Cohort 3 (100 mg or placebo, fasted, oral suspension), Cohort 4 (150 mg or placebo, fasted, oral suspension), Cohort 6 (50 mg or placebo, fed, oral suspension), and Cohort 7 (50 mg or placebo, fasted, oral capsule). […] An additional 8 subjects received placebo.
Decrease in sUA appeared to reach a plateau at 100 mg or lower.

[3] = Phase 1 single dose study, plasma pharmacokinetics; format: in vivo, human; details: for power model intercept (a) of exposure versus dose: male, human, plasma, oral
Protocol: as §1
The results are consistent with observation in animal testing and higher exposure of S-enantiomer was attributed to the conversion of the R-enantiomer in vivo.

[4] = system: Cynomolgus Monkeys; test: 4-week oral toxicity study in cynomolgus monkeys; format: in vivo
Text: (§2) On Day 29, surviving TS animals (all animals in study) were euthanized and subjected to a full gross necropsy, which included a macroscopic examination of the external surface of the body, all orifices, cranial cavity, external surface of the brain, the thoracic, abdominal and pelvic cavities and their viscera, cervical areas, carcass and genitalia. Organs were weighed as soon as possible from all main study animals at the scheduled necropsies. Tissues from animals at the terminal sacrifice, from animals found dead or moribund-sacrificed, and gross lesions from all animals, were embedded in paraffin, sectioned, stained with hematoxylin and eosin and examined microscopically by a board certified veterinary pathologist.

[5] = system: Sprague-Dawley Rats; test: 4-week oral toxicity study in Sprague-Dawley rats; format: in vivo; details: rat
Text: as §2, with “Tissues from Groups 1 and 5 animals at” for “Tissues from animals at”

[6] = biological target: T1, human URAT1 uptake transporter (Homo sapiens, UniProt Q96S37); test: Inhibition of URAT1-mediated uric acid uptake in MDCKII cells stably expressing human URAT1; format: cell-based
T1 construct: expressed in transfected cells
T1 sequence (Q96S37 1-553): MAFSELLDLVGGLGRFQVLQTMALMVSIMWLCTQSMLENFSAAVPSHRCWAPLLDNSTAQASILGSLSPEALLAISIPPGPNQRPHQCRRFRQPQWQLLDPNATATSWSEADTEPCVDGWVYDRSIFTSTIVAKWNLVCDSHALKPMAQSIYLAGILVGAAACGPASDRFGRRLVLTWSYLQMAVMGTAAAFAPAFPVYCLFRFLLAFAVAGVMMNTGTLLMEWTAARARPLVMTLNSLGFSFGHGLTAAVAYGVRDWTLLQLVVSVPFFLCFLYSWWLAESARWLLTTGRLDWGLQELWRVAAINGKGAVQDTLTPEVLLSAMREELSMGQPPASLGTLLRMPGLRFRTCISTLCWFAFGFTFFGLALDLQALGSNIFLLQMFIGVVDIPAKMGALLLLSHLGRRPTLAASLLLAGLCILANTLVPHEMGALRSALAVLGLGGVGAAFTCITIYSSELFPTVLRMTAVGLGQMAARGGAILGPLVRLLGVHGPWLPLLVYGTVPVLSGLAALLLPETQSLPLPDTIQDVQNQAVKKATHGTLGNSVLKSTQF
Protocol: Uptake experiments were performed using MDCKII cells stably expressing the human URAT1 uptake transporter. Cells were cultured at 37+1° C. in an atmosphere of 95:5 air:CO2 and were plated onto standard 96-well tissue culture plates at the cell number described in Table 1.
Radiolabeled probe substrate transport was determined by measuring an aliquot (35 μL) from each well for liquid scintillation counting.

[7] = system: serum uric acid (sUA); test: Phase 1 multiple ascending dose study, pharmacodynamics (serum uric acid); format: in vivo, human; details: 25, 50 or 75 mg once daily oral capsules, fasted, 10 days; in words
Text: An additional 6 subjects received placebo.
Steady-state sUA lowering effect was achieved after approximately 5 days.

With `[2H]c1c([2H])c([2H])c2c(C(=O)c3cc(Br)c(O)c(Br)c3)c(C(C)O)oc2c1[2H]` (racemic) [Compound 1, (3,5-dibromo-4-hydroxyphenyl)(2-(1-hydroxyethyl)benzofuran-3-yl-4,5,6,7-d4)methanone] the “% MS response, Parent” value [1] was 82.5%, the “formation of 6-OH benzbromarone and 5,6-di-OH benzbromarone metabolites” value ([1]; in words) was “not formed” and the “sUA reduction with versus without food” value ([2]; 50 mg single dose, throughout 120 hours post-dose, in words) was “no difference”. For the same compound, the “Percent change in serum uric acid, mean, time-matched (Day-1) baseline” value (shortened to “Percent change in serum uric acid, mean”) ([2]; single oral dose 15 mg, fasted) was −3.4%, the “Percent change in serum uric acid, mean” value ([2]; single oral dose 50 mg, fasted (suspension)) was −8.9% and the “Serum uric acid, mean” value ([2]; single oral dose 50 mg, fasted (suspension), −12 h (pre-dose)) was 5.9 mg/dL. For the same compound, the “Serum uric acid, mean” value ([2]; single oral dose 50 mg, fasted (suspension), −24 h (pre-dose)) was 6.7 mg/dL, the “Serum uric acid, mean” value ([2]; single oral dose 50 mg, fasted, Capsule, −12 h (pre-dose)) was 5.5 mg/dL and the “Serum uric acid, mean” value ([2]; single oral dose 50 mg, fasted, Capsule, −18 h (pre-dose)) was 5.5 mg/dL. The “Percent change in serum uric acid, mean” value ([2]; single oral dose 50 mg, fed) was −1.0%, the “Serum uric acid, mean” value ([2]; single oral dose 50 mg, fed, −12 h (pre-dose)) was 6.2 mg/dL and the “Serum uric acid, mean” value ([2]; single oral dose 50 mg, fed, −24 h (pre-dose)) was 6.5 mg/dL. The “Percent change in serum uric acid, mean” value ([2]; single oral dose 100 mg, fasted) was −6.6%, the “Serum uric acid, mean” value ([2]; single oral dose 150 mg, fasted, −18 h (pre-dose)) was 5.7 mg/dL and the “mean sUA levels versus placebo group” value ([2]; single oral dose 15, 50, 100, and 150 mg fasted, at 50 mg or higher, in words) was “dose-dependent decreases”. For the same compound, the “food effect on Cmax in the fed state” value ([3]; 50 mg, fed versus fasted) was about 33%, the “dose proportionality of AUC (AUCinf)” value ([3]; 15 to 150 mg, fasted, in words) was “dose proportional increases” and the “dose proportionality of Cmax” value ([3]; 15 to 150 mg, fasted, in words) was “slightly less than dose proportionality increase”. The power model intercept (a) of exposure versus dose ([3]; 15 to 150 mg, fasted, AUCinf (μg · h/mL) = a × dose^b, read-out: power model intercept, AUCinf) was 944 ng·h/mL, the power model intercept (a) of exposure versus dose ([3]; 15 to 150 mg, fasted, Cmax (μg/mL) = a × dose^b, read-out: power model intercept, Cmax) was 96.6 ng/mL and the “AUCinf (Total)” value ([3]; single oral dose 50 mg, fed, suspension (C6)) was 51.2 µg·h/mL. The “volume of distribution, range over dose groups” value ([3]; single oral dose 15-150 mg) was 14 to 18 L, the “human equivalent of NOAEL” value ([4]; cynomolgus monkey, in vivo) was 600 mg and the “effect on food consumption of body weight” value ([4]; monkey, 10-150 mg/kg/day, 28 days) was “no effect”. For the same compound, the liver weight ([4]; monkey, male, 150 mg/kg/day, no statistical difference) was “trended higher”, the “effect on food consumption of body weight” value ([5]; 2-50 mg/kg/day oral gavage, 28 days) was “no effect” and the kidney weight ([5]; female, 50 mg/kg/day, 28 days) was “kidney weight increase”. The liver weight ([5]; female, ≥15 mg/kg/day, 28 days) was “Liver weight increase”, the “human equivalent of NOAEL” value ([5]; in vivo) was 500 mg and the liver weight ([5]; male, 50 mg/kg/day, 28 days) was “Liver weight increase”. The inhibition at 10 µM ([6]; MDCK-II, at 10 μM, read-out: inhibition of URAT1 mediated uric acid accumulation) was 100%, the “in vitro URAT1 potency versus benzbromarone” value ([6]; comparison in words) was “better in vitro URAT1 potency than benzbromarone” and the “mean sUA levels versus placebo group” value [7] was “dose-dependent decreases”.

For `CCc1oc2ccccc2c1C(=O)c1cc(Br)c(O)c(Br)c1` [Benzbromarone, reference compound], the “% MS response, Parent” value [1] was 13.1%.
